{"source": "paper PMC6495176", "about": "“Steroidal antibiotics are antimetabolites of Acanthamoeba steroidogenesis with phylogenetic implications” (Journal of Lipid Research, 2019)", "key": {"24-AcSMT [1]": {"biological_target": "T1, 24-AcSMT (Acanthamoeba castellanii, UniProt L8GNG7)", "T1 construct": "gene ACA1_193300; recombinant 24-AcSMT (XP_004336540) expressed in E. coli, lysate preparation", "T1 sequence (L8GNG7 entry or part of it)": "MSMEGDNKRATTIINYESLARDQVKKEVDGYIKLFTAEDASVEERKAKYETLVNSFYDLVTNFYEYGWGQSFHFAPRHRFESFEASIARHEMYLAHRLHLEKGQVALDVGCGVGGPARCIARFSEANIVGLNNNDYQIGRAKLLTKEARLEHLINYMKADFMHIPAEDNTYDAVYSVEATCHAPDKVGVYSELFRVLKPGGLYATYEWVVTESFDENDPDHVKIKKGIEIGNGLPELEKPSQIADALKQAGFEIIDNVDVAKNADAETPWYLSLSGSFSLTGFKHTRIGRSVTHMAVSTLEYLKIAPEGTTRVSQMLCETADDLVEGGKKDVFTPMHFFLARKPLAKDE", "assay": "steady-state inhibition of cycloartenol methylation by recombinant enzyme; also turned over to ERGT (GC-MS)", "assay_type": "biochemical"}, "28-AcSMT [2]": {"biological_target": "T2, 28-AcSMT (Acanthamoeba castellanii, UniProt L8GKC5)", "T2 construct": "gene ACA1_237870; recombinant 28-AcSMT (XP_004335307) expressed in E. coli, lysate preparation", "assay": "steady-state inhibition of […]([…])-methylene lophenol methylation by recombinant enzyme, GC-MS; partition ratio and substrate protection", "assay_type": "biochemical"}, "28-AcSMT [3]": {"biological_target": "T3, 28-AcSMT (Acanthamoeba castellanii, UniProt L8GKC5)", "T3 construct": "gene ACA1_237870", "T3 sequence (L8GKC5 1-346)": "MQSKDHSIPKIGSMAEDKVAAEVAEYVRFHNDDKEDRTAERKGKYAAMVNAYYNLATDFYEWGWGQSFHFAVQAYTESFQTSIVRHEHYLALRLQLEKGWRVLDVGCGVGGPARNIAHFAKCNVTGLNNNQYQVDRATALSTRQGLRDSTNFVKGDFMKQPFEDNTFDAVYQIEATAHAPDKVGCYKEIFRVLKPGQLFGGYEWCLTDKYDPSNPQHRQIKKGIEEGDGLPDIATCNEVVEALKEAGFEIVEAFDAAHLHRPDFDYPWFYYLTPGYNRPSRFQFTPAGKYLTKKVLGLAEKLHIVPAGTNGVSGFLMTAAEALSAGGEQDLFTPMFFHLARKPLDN", "assay": "MALDI-TOF mass shift and retention of 3H-label after Ni-NTA purification; GC-MS of diol products", "assay_type": "binding"}, "24-AcSMT [4]": {"biological_target": "T1, 24-AcSMT", "assay": "native substrate in steady-state SMT assay (Km)", "assay_type": "biochemical", "settings": "cited from earlier work"}, "[5]": {"substrate": "C=C(CC[C@@H](C)[C@H]1CC[C@H]2C3=CC[C@H]4[C@H](C)[C@@H](O)CC[C@]4(C)[C@H]3CC[C@]12C)C(C)C", "assay": "cells, lysate or membranes", "assay_type": "biochemical, Acanthamoeba castellanii", "settings": "SAM active site"}}}
{"molecule": "CC(C)=C/C=C/[C@@H](C)[C@H]1CC[C@H]2C3=CC=C4C[C@@H](O)CC[C@]4(C)[C@H]3CC[C@]12C", "note": "[CHT]", "values": [{"measurement": "Ki", "setting": "24-AcSMT [1]", "value": 18, "unit": "µM"}, {"measurement": "Ki", "setting": "28-AcSMT [2]", "value": 8, "unit": "µM"}]}
{"molecule": "C=C(/C=C/[C@@H](C)[C@H]1CC[C@H]2C3=CC=C4C[C@@H](O)CC[C@]4(C)[C@H]3CC[C@]12C)C(C)C", "note": "[compound 15, ergosta-5,7,22,24(28)-tetraen-3-ol]", "values": [{"measurement": "MALDI-TOF mass shift and retention of 3H-label after Ni-NTA purification; GC-MS", "setting": "28-AcSMT [3]", "value": "irreversible nature of the ERGT-28-AcSMT complex was further confirmed by MALDI-TOF analysis showing an increase in molecular mass"}]}
{"molecule": "CC(C)=CCC[C@@H](C)[C@H]1CC[C@@]2(C)[C@@H]3CC[C@H]4C(C)(C)[C@@H](O)CC[C@@]45C[C@@]35CC[C@]12C", "note": "[cycloartenol]", "values": [{"measurement": "Km", "setting": "24-AcSMT [4]", "value": 48, "unit": "µM"}]}
{"molecule": "28-AcSMT (Acanthamoeba castellanii str. Neff) (protein, recombinant 28-AcSMT (XP_004335307) expressed in E. coli, lysate preparation) MQSKDHSIPKIGSMAEDKVAAEVAEYVRFHNDDKEDRTAERKGKYAAMVNAYYNLATDFYEWGWGQSFHFAVQAYTESFQTSIVRHEHYLALRLQLEKGWRVLDVGCGVGGPARNIAHFAKCNVTGLNNNQYQVDRATALSTRQGLRDSTNFVKGDFMKQPFEDNTFDAVYQIEATAHAPDKVGCYKEIFRVLKPGQLFGGYEWCLTDKYDPSNPQHRQIKKGIEEGDGLPDIATCNEVVEALKEAGFEIVEAFDAAHLHRPDFDYPWFYYLTPGYNRPSRFQFTPAGKYLTKKVLGLAEKLHIVPAGTNGVSGFLMTAAEALSAGGEQDLFTPMFFHLARKPLDN", "values": [{"measurement": "Km", "setting": "[5]", "value": 44, "unit": "µM"}]}
